Like-named read-outs stand apart in the source and are kept apart here.
Assays:
[1] = after 6 days of dosing with 60 mg, Sinemet portion
Procedure: (§1) This was a Phase 1, non-randomized, open-label, 2-cohort, cross-over, DDI study in healthy male and female subjects.
(§2) In Cohort 1, a single oral dose 100 mg/25 mg levodopa-carbidopa (Sinemet®) IR was administered alone on Day 1.

[2] = BIA 28-6156-105: safety and tolerability
[3] = LTI-291-001: safety and tolerability; assay type: in vivo, human
Procedure: This study was a first-in-human Phase 1, randomized, double-blind, placebo-controlled, single-ascending dose study to evaluate the safety and tolerability, PK, and PD of escalating single oral doses of Compound A (3, 10, 30, and 90 mg) in 4 cohorts of healthy subjects. A total of 32 subjects received a single oral dose of Compound A (8 per dose group) and 8 subjects received placebo. The effect of food on the PK of Compound A was evaluated by administering a second single oral dose of 10 mg Compound A to the subjects in Cohort 2 on a separate occasion, after subjects had completed a high-fat breakfast. Blood samples for Compound A PK were collected up to 48 hours after each dose.

[4] = LTI-291-004 imaging study in GBA-PD: plasma concentrations; assay type: in vivo, human; conditions: Day 7, Day 14, Day 28, GBA-PD
Procedure: This study was a Phase 1B, randomized, double-blind, placebo-controlled, multiple oral dose study of Compound A in 14 subjects (aged 51 to 81 years) with GBA-PD. The objectives of this study were to investigate the safety, tolerability, and PK of multiple once-daily oral administration of Compound A and to explore the accompanying pharmacodynamic changes. Subjects received once-daily oral doses of 10 mg (n=6) or 60 mg (2×30 mg capsules) (n=6) Compound A or placebo (n=2) for 28 consecutive days. PK samples were measured once on Day 7 and Day 14 and 4 times after the last dose on Day 28. Plasma concentrations were summarized at each time point, and no PK parameters were estimated. The PD evaluations included fMRI measures; FDG-PET to determine the metabolic rate of glucose in specific regions of the brain; and functional outcome measures (MDS-UPDRS Part III and the MMSE). GluCer, GluSph, and LacCer and other sphingolipids were measured in PBMCs and plasma as biomarkers of pharmacological effect.

[5] = after 6 days of dosing with 60 mg, Madopar portion
Procedure: as §1
In Cohort 2, a single oral dose 100 mg/25 mg levodopa-benserazide (Madopar®) IR was administered alone on Day 1.

[6] = LTI-291-002: CNS (NeuroCart) assessments; assay type: in vivo, human
Procedure: This study was a phase 1, randomized, double-blind, placebo-controlled, multiple ascending dose study of Compound A in 4 cohorts of middle-aged to elderly healthy participants (aged 52 to 75 years). […] A total of 39 healthy subjects were enrolled in 4 sequential cohorts. Subjects in each cohort received once-daily oral doses of 3 mg (n=7), 10 mg (n=8), 30 mg (n=8), or 60 mg (n=8) Compound A or placebo (n=8) for 14 days. Pharmacokinetic parameters were determined for each dose at Day 1, Day 7, and Day 14. Cerebrospinal fluid samples for Compound A concentrations were measured before the first dose and 4 hours after the last dose for each dose level. GluCer, glucosyl sphingosine (GluSph), and lactosyl-ceramide (LacCer) were measured in plasma, PBMCs, and CSF as biomarkers of pharmacological effects. Pharmacodynamic measurements consisted of battery of CNS (NeuroCart®) assessments including Saccadic Eye Movements, Smooth Pursuit Eye Movements, Adaptive Tracking, Body Sway, Visual Verbal Learning Test, and pharmaco-EEG.

[7] = LTI-291-001: CNS (NeuroCart) assessments; assay type: in vivo, human; conditions: single doses 3-90 mg, healthy subjects
Procedure: The pharmacodynamic evaluations consisted of a battery of CNS (NeuroCart®) assessments, including Saccadic Eye Movements, Smooth Pursuit Eye Movements, Adaptive Tracking, Body Sway, Visual Verbal Learning Test, and EEG. GluCer was measured in plasma and PBMCs as a biomarker of pharmacological effect.

clinical = conditions: both, human, plasma, 60 mg; for AUC(0-t): Sinemet portion, geometric mean
Procedure: as §1, §2

SMILES: CCCCCO[C@H]1CC[C@H](NC(=O)c2cnn3c(C)cc(C)nc23)CC1 [Compound A, 5,7-dimethyl-N-((1S*,4S)-4-(pentyloxy)cyclohexyl)pyrazolo[1,5-a]pyrimidine-3-carboxamide]
- steady state concentrations of Compound A [1]: appeared not to have been reached
- laboratory values considered related to Compound A ([2]; after 150 mg Compound A): increased ALT and increased GGT in 1 subject
- deaths or other SAEs ([2]; in vivo): No deaths or other SAEs
- TEAEs considered related to Compound A 150 mg ([2]; reported in 2 subjects): 4 of 90 TEAEs
- AE fatigue, subjects ([3]; all Compound A groups): 7.5%
- AE headache, subjects ([3]; all Compound A groups): 12.5%
- AE somnolence, subjects ([3]; all Compound A groups): 10%
- at least one AE in the GI system organ class, subjects ([3]; all Compound A groups): 7.5%
- vital signs, laboratory safety assessments, ECG parameters ([3]; single doses): no clinically significant safety observations
- deaths, SAEs, severe AEs, discontinuations due to AEs ([3]; single doses 3-90 mg): No deaths, other SAEs, severe AEs, or discontinuations due to AEs
- Mean plasma concentrations, 60 mg vs 10 mg [4]: higher after the 60 mg dose than after the 10 mg dose
- steady state concentrations of Compound A [5]: appeared not to have been reached
- EEG Alpha-power Pz-Oz, eyes closed ([6]; 3 mg vs placebo): significant decrease
- effects on CNS (Neurocart) tests ([6]; 3-60 mg daily for 14 days): no dose-dependent effects
- saccadic inaccuracy ([6]; 10 and 30 mg groups vs placebo): significant increase
- saccadic peak velocity or reaction time ([6]; vs placebo): No changes
- effects on CNS (Neurocart) tests [7]: no dose-dependent effects
- Cmax (clinical): 1940 ng/mL
- Tmax (clinical): 2 h
- AUC(0-t) (clinical; AUC0-24, 60 mg Compound A alone): 22800 ng·h/mL
- AUC(0-t) (clinical; AUC0-t, 60 mg Compound A alone): 22700 ng·h/mL

From patent publication US20260240851A1, “Treatment of Parkinson's Disease in a Patient Using a Glucocerebrosidase Activator” (BIAL - R&D Investments, S.A., priority 2023, published 2026)
